Reference: US20100274500A1, “METHOD AND SYSTEM FOR MEASURING MEMBRANE POTENTIAL BASED ON FLUORESCENCE POLARIZATION” (Seng Enterprises Ltd., priority 2006, published 2010)
Where “and” joins values, the source holds several entries; their conditions need not be identical. Identical values can stand only once.

What was measured:
U937 promonocytic cells [1] = assay: Fluorescence polarization measurements in U937 cells stained with Rh123; assay type: cell-based; details: for Mean Polarization: average based on 300 U937 cells stained with Rh123; for Mean Polarization / Mean FP, Left Cell / Mean FP, Right Cell: CCCP 5 μM or Nigericin 5 μg/ml, 15 minutes; for Mean FP, Left Cell / Mean FP, Right Cell: overall polarization of the entire cell, U937 stained with Rh123
Experimental: Fluorescence polarization (FP) evaluation was conducted using U937 promonocytic cells under the following physiological conditions: control, following treatment with CCCP and following treatment with Nigericin. All the cells were stained with Rh123, rinsed, loaded in cell chips and then measured. Cell treatment: U937 promonocytic cells were treated with an oxidative phosphorylation uncoupler CCCP (commercially available from Sigma-Aldrich) at a concentration of 5 μM and Nigericin (commercially available from Sigma-Aldrich) at 5 μg/ml for 15 minutes. Cell staining: Cells were stained by treating with […] Rh123 and loaded in cell chips. Fluorescence polarization measurement: Transmitted light images and fluorescence images were obtained parallel to the excitation field (excitation and emission polarizers set at 0°), and perpendicular to it, with the excitation polarizer set at 0°, and the emission polarizer set at 90°. From every pair of parallel and perpendicular images, the FP value was calculated for each pixel, using the following equation and a polarization map was created according to the following equation: In order to obtain a calibration reference point, the polarization value was obtained from the entire cell. […] Accordingly, a cell chip was used which allowed defining the borders of the cell by means of images of the cell received through transmitted light photographs. The borders were projected on the polarization map and the FP average was calculated for each cell. This process was implemented to evaluate all the cells, and a general average was obtained for each given physiological state.

U937 promonocytic cells [2] = assay: Fluorescence lifetime measurements in U937 cells stained with Rh123; assay type: cell-based; details: for f1(weight) / α1(decay) / τ1(lifetime): long lifetime component (attributed to cytoplasm); for f2(weight) / α2(decay) / τ2(lifetime): short lifetime component (attributed to mitochondria); for fluorescence signal from the probe located in the mitochondria: weight of the short decay component
Experimental: Cell treatment: U937 promonocytic cells were treated with an oxidative phosphorylation uncoupler CCCP and Nigericin as described hereinabove.
Cell staining: Cells were stained by treating with Rh123 and loaded in cell chips.
Fluorescence lifetime measurement: Measurements were carried out using polarizers that were set at magic […]. Rh123 was excited by a 488 nm laser line. Fluorescence testing was conducted from 500 nm wavelengths and above (toward the red area).
The results were obtained from an average, encompassing 30 evaluations, with standard deviations recorded accordingly. The outstanding result is the fact that two lifetime groups were obtained, one long—above 4 nanoseconds—and one short—below 3 nanoseconds. In order to determine which region correlates with which lifetime group both the lifetimes and the weights were considered.

U937 cells = assay: Spectroscopic measurements in whole and ruptured cells stained with Rh123; assay type: cell-based
Experimental: There were two main goals to these experiments. The first goal was to ascertain whether a fluorescence intensity decreases in cells treated with CCCP, and similarly, to ascertain whether fluorescence intensity increases in cells treated with Nigericin. The second goal was to learn about the characteristics and amount of influence of the cellular medium on the Rh123 spectroscopic properties.
The cells were stained with Rh123 at a concentration of 3 μM and suspended in PBS, at a cell concentration of 350,000/ml. At this cell concentration, no scattered signal was detected in the fluorescence measurement setup.
The measurement was conducted in CARY spectrofluorometer. The excitation was performed at 480±10 nm and the fluorescence was collected using a 530±10 nm filter. The cell suspension was divided into 4 aliquots in volumes of 2 ml, each. First, the spectrum for all the parts was measured and a comparison was performed to verify equal cell concentration in each quota. Second, parts 3 and 4 were treated with CCCP, while acetone was added to parts 1 and 2, at the same concentration and volume as that in which the CCCP was dissolved, and a spectrum measurement was made. At the end of this process, parts 1 and 3 were ruptured by sonication (VCX 130, Sonics and Materials Inc, Newtown, USA), and parts 2 and 4 were centrifuged and the supernatant was removed to measure the background.
Since there are differences in the emission spectrum of Rh123 in the mitochondria and cytoplasm, the area under the emission graphs must also be calculated in estimating the given spectral effect of CCCP. The area is proportionate to the number of emitting molecules and not to the measured intensity.
Cell preparation and measurement were conducted using the Cary system, and were identical to those with CCCP, except that Nigericin was used for […] the cells.
The overall emission intensity was calculated as above for CCCP to investigate the cause of the fluorescence intensity increase by calculating the area below the emission graph. The columns show average values and standard deviation values of at least two identical experiments. The stars indicate the significant statistical differences before the ANOVA test.

[3] = Direct influence of pH on the fluorescence lifetime of Rh123 and NAO; assay type: physicochemical; details: Rh123 5 μg/ml, NAO 10 μM
Experimental: The intra-cellular environment is heterogeneous and multi-phased; therefore, changes may occur in the acidity level in different regions in the cell. Measurements were executed, for this reason, to test if the acidic level has any influence on the fluorescence lifetime of the Rh123. The measurements were conducted in a K2 system, in a suspension of Rh123 with a concentration of 13 μM and the suspension of NAO, in a concentration of 10 μM with an acidity level of 6.0, 7.4 and 8.5.

[4] = Direct influence of viscosity (glycerol) on FLT and FP of Rh123 and NAO; assay type: physicochemical; details: Rh123 5 μg/ml, NAO 10 μM
Experimental: In these tests, the fluorescence lifetime τF was also measured along with the rotational decay time τR. For this, Rh123 (5 μg/ml) and suspension NAO (10 μM) were dissolved in three glycerol suspensions (30%, 60% and 80% v/v) in PBS. Each measurement was performed in triplicate.

[5] = Direct influence of CCCP and Nigericin on emission spectrum, polarization and lifetime of Rh123 in suspension
Experimental: A suspension of Rh123 at a concentration of 0.5 μg/ml was prepared. The suspension was divided into three aliquots, each containing a volume of 1 ml. To the first part was added 2.5 μl of PBS. To the second part was added 2.5 μl CCCP at a concentration of 2 mM, so that a final concentration of 5 μM CCCP was reached. To the third part was added 2.5 μl of Nigericin, at a concentration of 2 mg/ml, so that a final concentration of 5 μg/ml Nigericin was reached.
In the first stage, the emission spectrum of the suspension was obtained, using CARY ECLIPSE. The suspensions were excited with 480 nm light and the fluorescence was measured between 500-600 nm, while the slits (emission and excitation) were 2.5 nm.
The direct influence of CCCP and/or Nigericin were tested on the same suspensions of Rh123, measuring the lifetimes in contrast to the control.

[6] = tested on: mitochondria of U937 cells; assay: Mitochondrial membrane potential derived from lifetime decay weights with the Nernst equation; assay type: cell-based; details: estimated with the f value, Nernst equation at 300° K, VC/VM≅500, U937 cells treated with CCCP
Excerpt: The following example describes the use of weights ƒ and/or α, decay components, to estimate the probe concentration in the mitochondria and the cytoplasm and from this to derive the membrane potential using the Nernst Equation.
The weight is proportional to the total measured fluorescence signal from an area with a certain fluorescence lifetime. In relying on the results of the measurement, it can be assumed that the decay level in the mitochondria and the cytoplasm is equal and, therefore, is not taken into consideration. In order to convert the weight ratio to concentration ratios, it is necessary to multiply them by the inverted volume ratio, i.e., VC/VM (C-Cytoplasm, M-Mitochondria). Given that this ratio is constant for a certain type of synchronized cells, [data not shown], despite the complex measurement-calculation, it is enough to execute this operation only once.
Considering the Nernst equation at 300° K and the measured fluorescence signal: […]

SMILES | Mean Polarization (U937 promonocytic cells [1]) | Mean FP, Left Cell (U937 promonocytic cells [1]) | Mean FP, Right Cell (U937 promonocytic cells [1]) | f1(weight) (U937 promonocytic cells [2]) | α1(decay) (U937 promonocytic cells [2]) | τ1(lifetime) (U937 promonocytic cells [2]) | f2(weight) (U937 promonocytic cells [2]) | α2(decay) (U937 promonocytic cells [2]) | τ2(lifetime) (U937 promonocytic cells [2]) [nsec] | fluorescence signal from the probe located in the mitochondria (U937 promonocytic cells [2]) | Fluorescence life-time τF ([3]; pH 6.0) [nsec] | Fluorescence life-time τF ([3]; pH 7.4) [nsec] | Fluorescence life-time τF ([3]; pH 8.5) [nsec] | FP ([4]; Glycerin 30% v/v in PBS) | τF ([4]; Glycerin 30% v/v in PBS) [nsec] | τR (rotational decay time) ([4]; Glycerin 30% v/v in PBS) [nsec] | FP ([4]; Glycerin 60% v/v in PBS) | τF ([4]; Glycerin 60% v/v in PBS) [nsec] | τR (rotational decay time) ([4]; Glycerin 60% v/v in PBS) [nsec] | FP ([4]; Glycerin 80% v/v in PBS) | also measured
CO[C@@H]1C[C@@H](C[C@H]2CC[C@H](C)[C@H]([C@@H](C)C(=O)O)O2)O[C@]2(O[C@](C)([C@H]3CC[C@@](C)([C@@H]4O[C@@H]([C@H]5O[C@@](O)(CO)[C@H](C)C[C@@H]5C)C[C@@H]4C)O3)C[C@H]2C)[C@@H]1C [Nigericin] | 0.258 ± 0.025 | 0.255 ± 0.057 | 0.253 ± 0.048 | 0.330 | 0.138 ± 0.048 | 7.735 ± 0.828 nsec | 0.670 | 0.862 ± 0.030 | 2.519 ± 0.174 | 86% |  |  |  |  |  |  |  |  |  |  | polarization values in the mitochondrial areas (U937 promonocytic cells [1]; polarization map of U937 cells stained with Rh123, compared with control): lower; fluorescence signal from the probe found in the cytoplasm (U937 promonocytic cells [2]; weight of the long decay component): 14%; overall emission intensity from a suspension of ruptured cells (U937 cells; U937 cells treated prior to rupture, entire emission range): higher than that received from an untreated cell suspension; overall emission intensity from whole cells (U937 cells; whole U937 cells stained with Rh123, complete emission range): higher than that of untreated cells
CCCCCCCCC[n+]1c2cc(N(C)C)ccc2cc2ccc(N(C)C)cc21.[Br-] [NAO] |  |  |  |  |  |  |  |  |  |  | 1.086 ± 0.028 | 1.051 ± 0.003 | 1.066 ± 0.006 | 0.110 ± 0.007 | 1.599 ± 0.072 | 0.923 ± 0.181 | 0.179 ± 0.009 | 2.081 ± 0.056 | 1.298 ± 0.057 | 0.303 ± 0.004 | τF ([4]; Glycerin 80% v/v in PBS): 2.556 ± 0.009 nsec; τR (rotational decay time) ([4]; Glycerin 80% v/v in PBS): 3.888 ± 0.181 nsec
COC(=O)c1ccccc1-c1c2ccc(=N)cc-2oc2cc(N)ccc12.Cl [Rh123] |  |  |  |  |  |  |  |  |  |  | 4.204 ± 0.064 | 4.325 ± 0.007 | 4.215 ± 0.037 | 0.090 ± 0.007 | 3.861 ± 0.142 | 0.460 ± 0.010 | 0.200 ± 0.005 | 3.536 ± 0.018 | 2.219 ± 0.006 | 0.366 ± 0.010 | lifetime of Rh123 in a water suspension (PBS) [5]: ~4.2 nsec; τF ([4]; Glycerin 80% v/v in PBS): 3.500 ± 0.211 nsec; τR (rotational decay time) ([4]; Glycerin 80% v/v in PBS): 8.463 ± 0.047 nsec
N#CC(C#N)=NNc1cccc(Cl)c1 [CCCP] | 0.346 ± 0.013 | 0.343 ± 0.034 | 0.324 ± 0.046 | 0.867 | 0.690 ± 0.105 | 4.27 nsec and 4.271 ± 0.292 nsec | 0.133 | 0.310 ± 0.100 | 1.475 ± 0.423 | about 30% |  |  |  |  |  |  |  |  |  |  | number of fluorescent molecules (overall emission intensity following cell rupture) (U937 cells; ruptured U937 cells stained with Rh123, with and without CCCP): does not diminish the number of fluorescent molecules; leakage of the probe (background signal of the suspending solution) (U937 cells; supernatant of U937 cells stained with Rh123 following CCCP treatment): causes leakage from the entire cell; emission maximum wavelength of intra-cellular Rh123 following activation of CCCP (U937 cells; whole U937 cells stained with Rh123 3 μM, 534 nm before CCCP): 532 nm; Δψ (mitochondrial membrane potential) [6]: ~−112.84 mV
